Data reported in patent US20060122153A1, “Antineoplastic ether lipid compounds with modifications at the sn-2 carbon” (priority 2003, published 2006).
Values joined by “and” are separate entries in the source; they are usually repeats but may differ in a detail not shown here. Identical values can stand only once. Like-named read-outs stand apart in the source and are kept apart here.

Columns and labels:
[1] = system: human tumor cell lines (9 panels); test: NCI growth inhibition screen, all panels; assay type: cell-based; details: for activity as compared to ET-18-OCH3 (in words): all NCI panels; for activity compared to ET-18-OCH3 isomers (in words): colon and CNS panels of cell lines
Method: (§1) Candidates deemed suitable for in vivo testing were then synthesized in large scale quantities and some of this material was sent to the NCI's Developmental Therapeutics Program for a battery of growth inhibitory studies against various human tumor cell lines (60 cell lines, 9 different panels). The remainder of the material was used to assess in vivo efficacy using murine tumor models. Additionally, studies were conducted on the lead candidates to discern mechanism of action with particular emphasis on these agents apoptotic ability as measured by caspase 3 activity. The details (materials and methods) for these various assays are described further in the following discussion.
(§2) Ten compounds were also sent to NCI's Drug Discovery Program for screening against numerous human tumor cell lines (9 panels total: renal ovarian, colon, CNS, non-small cell lung, leukemia, breast, melanoma, and prostate). The data are shown in FIGS. 2a-i which also include data regarding D- and L-ET-18-OCH3 (listed as L-EL and D-EL in the figures). Upon examining the data, one is struck by how 1R and 1a′S standout in comparison to the other compounds, especially for the renal, ovarian, colon, and CNS panels.

SK-OV-3 = test: NCI growth inhibition screen, ovarian panel; assay type: cell-based, human; set-up: key: = means equivalent activity; + means that it appears to be significantly better (i.e., by ˜2x); < means it appears to be less active than ET18OCH3 (˜2x); a combination like =/+ or </+ means that activity is dependent upon the isomer; a combination like =/+ or </+ means that activity is dependent upon the isomer; details: SK-OV-3, Ovarian; from GI50s
Method: as §1, §2

A549 = test: In vitro growth inhibition (GI50), SRB assay; assay type: cell-based, human; details: A549 tumor cell line, 3 days
Excerpt: (§3) The following cell lines were selected from the cell bank for screening and GI50 studies: MCF-7: human breast tumor, MCF-7/ADR: MCF-7 adriamycin resistant subline, HT-29: human colon carcinoma, A-549: human non-small cell lung cancer, NIH-3T3: mouse Swiss embryo fibroblast and WI-38: human lung fibroblast, SKMEL-28: human melanoma, Lewis Lung: mouse lung carcinoma, DU-145: prostate carcinoma, B16F10: mouse melanoma, L1210: murine lymphocytic leukemia, P-388: murine leukemia, U-937: human histolytic lymphoma. Except HT-29, WI-38, NIH-3T3 and Lewis Lung which were obtained from the American Type Culture Collection (Rockville, Md.) all the other cell lines were obtained from National Cancer Institute—Frederick Research Facility (Frederick, Md.). All the cell lines were grown in RPMI-1640 medium containing 10% fetal bovine serum (FBS) except WI-38 and DU-145 which were grown in EMEM+10% FBS at 37° C., 5% CO2 and 100% humidity and NIH-3T3, Lewis Lung, B16F10 and L1210 which were grown in DMEM containing 10% FBS (10% HS for L1210). All the adherent cell lines were detached from the culture flasks by addition of 2-3 ml of 0.05% trypsin-EDTA. Thereafter, trypsin was inactivated by addition of 10 mL of 10% serum-containing RPMI-1640 medium. Cells were separated into a single-cell suspension by gentle pipetting action. Depending on the cell type, […] to 10,000 cells were plated onto 96-well plates a day prior to the drug treatment, in a volume of 100 μl per well.
(§4) The test compounds were made in-house and the compounds were dissolved PBS or saline at a stock concentration of approximately 20 mM, which is 400 times the desired final maximum test concentration. The stock solutions were then diluted with complete medium to twice the desired final concentration. 100 μl aliquots of each dilution was then added to the designated wells. After 3 days of incubation, cell growth was determined.
(§5) The SRB assay was performed as described by Monks, A., Scudiero, D., Skehan, P., Shoemaker, R., Paull, K., Vistica, D., Hose, C., Langley, J., Cronise, P., and Vaigro-Wolff, A. Feasibility of a high-flux anticancer drug screen using a diverse panel of cultured human tumo-r cell lines. J Natl Cancer Inst, 83: 757-766, 1991 with minor modifications. Following drug treatment, cells were fixed with 50 μl of cold 50% (wt/vol) trichloroacetic acid (TCA) for 60 minutes at 4° C. The supernatant was discarded, and the plates were washed six times with deionized water and then air dried. The precipitate was stained with 100 μl SRB solution (0.4% wt/vol in 1% acetic acid) for 10 minutes at room temperature, and free SRB was removed by washing three times with 1% acetic acid, and the plates were then air dried. Bound SRB was solubilized with Tris buffer (10 mM), and the ODs were read using an automated plate reader (Bio-Rad, Model 3550-UV) at 490 nm. Background values were subtracted from the test data, and the data was calculated as a % of control. […] Percentage growth was calculated as described by, Peters, A. C., Ahmad, I., Janoff, A. S., Pushkareva, M. Y., and Mayhew, E. Growth Inhibitory effects of liposome-associated 1-o-octadecyl-2-o-methyl-sn-glycero-3-phosphocholine. Lipids, 32:1045-1054, 1997. The raw optical density data Was imported into an Excel spreadsheet to determine dose responses. […] By varying drug concentration,-dose response curves were generated and the GI-50 values were calculated. The GI50 values for each experiment were calculated using data obtained from three duplicate wells on two separate plates.
(§6) For growth inhibitory evaluation, we used five human tumor cell lines (U937; HT29; A549; MCF7; MCF7/ADR) and two normal fibroblast cell lines (NIH-3T3, murine; WI-38, human).

MCF7 = test: In vitro growth inhibition (GI50), SRB assay; assay type: cell-based, human; details: for GI50: MCF7 tumor cell line, 3 days; for effect on MCF7 growth compared to ET-18-OCH3 (in words): separate in-house study, Table 3
Excerpt: as §3, §4, §5, §6

MCF7/ADR = test: In vitro growth inhibition (GI50), SRB assay; assay type: cell-based, human; details: MCF7/ADR tumor cell line, 3 days
Excerpt: as §3, §4, §5, §6

HT29 = test: In vitro growth inhibition (GI50), SRB assay; assay type: cell-based, human; details: HT29 tumor cell line, 3 days
Excerpt: as §3, §4, §5, §6

WI38 = details: for GI50: WI38 normal human fibroblast cell line, 3 days
Excerpt: as §3, §4, §5, §6

U937 = test: In vitro growth inhibition (GI50), cell growth assay; assay type: cell-based, human; details: U937 tumor cell line, 3 days
Method: After 3 days of incubation, cell growth was determined.
To determine the Growth Inhibition in the suspension cell lines, cell numbers were directly counted instead of using the SRB assay which determines the total cell protein. One day prior to the drug treatment, 40,000 cells per well were seeded into 24-well plates in a volume of 0.5 mL. Stock solutions were diluted with complete medium to twice the desired final concentrations, and then 0.5 mL aliquots of each dilution were added to the designated wells. After 3 days incubation, cell growth was determined by counting cell number using a coulter counter (Z-M, coulter). Cell counts were-also taken at time 0 and subtracted from the test results to give net growth.

HOP-62 = test: NCI growth inhibition screen, non-small cell lung panel; assay type: cell-based, human; details: for Performance as compared to ET-18-O—CH3: HOP-62, NS cell lung, from GI50s; for activity compared to other compounds (in words): HOP-62 cells, NCI screen
Method: as §1, §2

CCCCCCCCCCCCCCCCCCOC[C@@H](COP(=O)([O-])OCC[N+](C)(C)C)OS(C)(=O)=O [1a′S]
activity as compared to ET-18-OCH3 (in words) [1]: equal or greater in activity
activity compared to ET-18-OCH3 isomers (in words) [1]: more active than even the ET-18-OCH3 isomers
Performance as compared to ET-18-O—CH3 (SK-OV-3): 0
GI50 (A549): 9.3 µM
GI50 (MCF7): 31.3 µM
effect on MCF7 growth compared to ET-18-OCH3 (in words) (MCF7): appeared worse
GI50 (MCF7/ADR): 39 µM
GI50 (HT29): 2.6 µM
cytotoxicity to normal human fibroblast as compared to ET-18-OCH3 (in words) (WI38): less cytotoxic
GI50 (WI38): 16.3 µM
GI50 (U937): 1.4 µM
Performance as compared to ET-18-O—CH3 (HOP-62): +/=
activity compared to other compounds (in words) (HOP-62): better than a few of the other compounds

CCCCCCCCCCCCCCCCCCOCC(COP(=O)([O-])OCC[N+](C)(C)C)OS(C)(=O)=O (centres unmarked) [Compound 1aR]
activity as compared to ET-18-OCH3 (in words) [1]: equal or greater in activity
activity compared to ET-18-OCH3 isomers (in words) [1]: more active than even the ET-18-OCH3 isomers
Performance as compared to ET-18-O—CH3 (SK-OV-3): =
GI50 (A549): 6 µM and 6.6 µM
GI50 (MCF7): 24.3 µM and 26.4 µM
effect on MCF7 growth compared to ET-18-OCH3 (in words) (MCF7): appeared worse
GI50 (MCF7/ADR): > 40 µM
GI50 (HT29): 2.1 µM and 2.3 µM
GI50 (WI38): 40.9 µM
cytotoxicity to normal human fibroblast as compared to ET-18-OCH3 (in words) (WI38; WI-38): less cytotoxic
GI50 (U937): 1.4 µM
Performance as compared to ET-18-O—CH3 (HOP-62): +/=
activity compared to other compounds (in words) (HOP-62): better than a few of the other compounds

CCCCCCCCCCCCCCCCCCOCC(COP(=O)([O-])OCC[N+](C)(C)C)OC [D-ET18OCH3, 1-O-octadecyl-2-O-methyl-glycerophosphocholine, reference compound]
GI50 (A549): 8 µM
GI50 (MCF7): 14.6 µM
GI50 (MCF7/ADR): 25.1 µM
GI50 (HT29): 5.1 µM
GI50 (WI38): 10 to 13.5 µM
GI50 (U937): 1.4 µM
